Experimental data from patent US20120040904A1, “Boronate Medicaments for Preventing Thrombosis During Surgery” (Trigen Holdings AG, priority 2004, published 2012).
Marks after values point to notes of the source that are not given here.

Assays:
[1] = Comparative storage stability of sodium and calcium salts (Example 42); assay type: physicochemical; details: for Tri50c (w/w %, LOD corr.): corrected for loss on drying
From the text: In both studies the active pharmaceutical ingredient was stored in grip sealed double bags within a PE/PP screw cap closed cylinder.

[2] = Maximum solution concentration with and without pH control; assay type: physicochemical
[3] = system: dogs undergoing hypothermic CPB; test: Simulated mitral valve repair in dogs undergoing hypothermic CPB; assay type: in vivo, beagle dogs; details: intravenous, dogs on CPB
Method: Following a dose ranging study in conscious dogs, six beagle dogs were placed on CPB and underwent a simulated mitral valve repair. A range of dynamic coagulation markers were measured, including thrombin clotting time (TT), activated partial thromboplastin time (APTT), activated clotting time (ACT), ecarin clotting time (ECT), whole blood thrombin clotting time, platelet counts and function tests. In addition, pre and post-operative echocardiograms and intra-operative blood loss were evaluated. […] By virtue of its predictable anticoagulant efficacy and controlled duration of action, TGN 255 offers potential in on pump and off pump coronary bypass procedures.

healthy male subjects = test: Intravenous administration into humans (randomised double blind placebo study); assay type: in vivo; details: intravenous infusion
Method: The test consisted of three groups, each of six males. From each group 5 men were given the active ingredient and 1 was given a placebo.
Total I.V. administered doses were: • 82 mg (7 mg intravenous bolus (over 30 s) followed by an infusion of 25 mg/h for 3 hours). • 130 mg (10 mg intravenous bolus (over 30 s) followed by an infusion of 40 mg/h for 3 hours). • 120 mg (by infusion of 40 mg/h for 3 hours).

beagle dogs = test: Intravenous administration in beagle dogs, PK/PD (thrombin time, APTT); assay type: in vivo; details: 1.0 mg/kg i.v.
Method: Plasma concentrations were measured using an LCMS/MS method.
Blood samples were taken into 3.8% tri-sodium citrate (1+8) at pre dose, 2, 5, 10, 20, 30, minutes post dose and then at 1, 2, 3, 4, 6, 8, 12 and 24 hours post dose. Plasma was prepared by centrifugation and frozen at minus 20° C. pending analysis.

[4] = Stability: HPLC assay before and after drying over phosphorus pentoxide for 1 week; assay type: physicochemical; details: dry
Method: An assay of TRI 50c and its sodium and lysine salts before and after drying.
For sample analysis, 5 mg of dried and non-dried material was weighed in a 5 mL volumetric flask and dissolved in 1 mL acetonitrile and filled up with demineralised water to 5 mL.
The quantitative evaluation was performed using an HPLC-PDA method.

## COCCC[C@H](NC(=O)[C@@H]1CCCN1C(=O)[C@@H](Cc1ccccc1)NC(=O)OCc1ccccc1)B([O-])O.COCCC[C@H](NC(=O)[C@@H]1CCCN1C(=O)[C@@H](Cc1ccccc1)NC(=O)OCc1ccccc1)B([O-])O.[Ca+2] [TRI 50c calcium salt]
[1]; T = 0
  Tri50c (w/w %, LOD corr.): (99.7) w/w %
[1]; T = 1, 25° C./60% r.h.
  Tri50c (w/w %, LOD corr.): (101.5) w/w %
[1]; T = 1, 40° C./75% r.h.
  Tri50c (w/w %, LOD corr.): (100.6) w/w %
[1]; T = 1, −20° C.
  Tri50c (w/w %, LOD corr.): (102.7)^x w/w %
[1]; T = 3, 25° C./60% r.h.
  Tri50c (w/w %, LOD corr.): (104.3) w/w %
[1]; T = 3, 40° C./75% r.h.
  Tri50c (w/w %, LOD corr.): (82.0) w/w %
[1]; T = 3, −20° C.
  Tri50c (w/w %, LOD corr.): (103.0)^x w/w %
[1]; T = 12 25° C./60% r.h.
  TRI 50c (w/w): 94.8 w/w

## COCCC[C@H](NC(=O)[C@@H]1CCCN1C(=O)[C@@H](Cc1ccccc1)NC(=O)OCc1ccccc1)B(O)O.[Na+] [TRI 50c sodium salt, Cbz-(R)-Phe-(S)-Pro-(R)-Mpg-B(OH)2 monosodium salt]
[2]; control solution, about pH 7
  Maximum concentration: about 20 mg/ml
[2]; pH of about 9.5, pH not controlled
  Concentration of solution obtainable: about 600 mg/ml
[3]
  Anticoagulation during bypass and surgery: excellent anticoagulation
  Bleeding during bypass and surgery: little bleeding
Healthy male subjects
  Effect on thrombin time (TT): rapid, dose-related increase
Beagle dogs
  APTT elevation: 1.3 times

## COCCC[C@H](NC(=O)[C@@H]1CCCN1C(=O)[C@@H](Cc1ccccc1)NC(=O)OCc1ccccc1)B(O)O [TRI 50c, Cbz-(R)-Phe-(S)-Pro-(R)-boroMpg-OH]
[4]
  Amount: 1000.0 µg/mL
